Measurements as given in patent publication US6313310A, “4-and 5-alkynyloxindoles and 4-and 5-alkenyloxindoles” (Hoffmann-La Roche Inc., priority 1999, dated 2001).

Molecular target: rat SAPK (isoform β) (Rattus norvegicus, UniProt P49187)
Assay: SAPK FlashPlate Assay (inhibition of cJun phosphorylation)
Assay type: biochemical
Conditions: Table I B; for inhibition at 1 µM: Concentration <1.0 μM
Protocol: "IC50 " refers to the concentration of a particular 4- or 5-alkynyloxindole or 4- or 5-alkenyloxindole required to inhibit 50% of cJun phosphorylation, which is a measure of inhibition of SAPK activity. IC50 can be measured, inter alia, using the assay described herein in Example 102.
Human JNK is highly homologous to rat SAPK. To measure the inhibitory activity of test compounds, the compounds were tested in the rat SAPK assay.
For the SAPK assay, purified GST-cJun (a chimeric protein containing cjun, a natural substrate of JNK) was coated on 96 well FlashPlates (New England Nuclear, Boston, Mass.). Purified rat SAPK (isoform β, Kyriakis et al. supra) was preincubated with preparations containing MEKK-1 and MKK4 for 30 minutes at 37° C. in assay buffer containing 25 mM HEPES, pH 7.5, 150 mM NaCl, 20 mM MgCl2, 2 mM DTT, 0.001% Tween 20, 1 μM ATP freshly added. In the preincubation step, MEKK-1 phosphorylates and activates MKK-4, which in turn phosphorylates and activates SAPK. The activated SAPK was then added to the cJun coated FlashPlates along with ^33 P-ATP (0.32 μCi per reaction) and test compounds. The plates were incubated for 30 minutes at 37° C., then washed with PBS, 0.01% Tween 20, and counted in the Topcount scintillation counter (Packard Instrument Co., Downers Grove, Ill.). Dilutions of compounds were tested in duplicate in each assay. The percent inhibition of cJun phosphorylation (a measure of inhibition of SAPK activity) was determined by the following formula: [formula]
where "test compound" refers to the average counts per minute of the test duplicates, "nonspecific" refers to the average counts per minute when no SAPK was added, and "total" refers to the average counts per minute when no compound was added.

Sequence of rat SAPK (isoform β) (P49187 whole entry, canonical isoform): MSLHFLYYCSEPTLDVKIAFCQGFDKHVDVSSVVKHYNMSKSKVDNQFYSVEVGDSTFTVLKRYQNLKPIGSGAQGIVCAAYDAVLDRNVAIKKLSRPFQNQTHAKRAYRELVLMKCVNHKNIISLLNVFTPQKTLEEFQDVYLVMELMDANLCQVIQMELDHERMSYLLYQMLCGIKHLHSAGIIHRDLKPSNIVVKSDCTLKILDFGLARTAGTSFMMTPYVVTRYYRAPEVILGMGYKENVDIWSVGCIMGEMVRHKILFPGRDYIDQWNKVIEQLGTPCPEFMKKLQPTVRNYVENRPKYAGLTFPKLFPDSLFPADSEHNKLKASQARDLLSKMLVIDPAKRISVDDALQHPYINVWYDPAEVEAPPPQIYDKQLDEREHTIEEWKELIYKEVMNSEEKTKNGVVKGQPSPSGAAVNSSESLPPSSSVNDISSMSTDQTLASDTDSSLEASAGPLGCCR

## COc1cc[nH]c1/C=C1\C(=O)Nc2ccc(NC(=O)Cc3cccs3)c(C#Cc3cccnc3)c21 [III]
Concentration <0.10 μM
  inhibition at 0.1 µM: < 50%

## COc1cc[nH]c1/C=C1\C(=O)Nc2cccc(C#CC(O)c3cccn3C)c21 (racemic) [AA, rac-(Z)-1,3-Dihydro-4-[3-hydroxy-3-(1-methyl-pyrrol-2-yl)-1-propynyl]-3-[(3-methoxy-1H-pyrrol-2-yl)methylene]-2H-indol-2-one]
  inhibition at 1 µM: > 50%

## COc1cc(C(O)C#Cc2cccc3c2/C(=C/c2[nH]ccc2OC)C(=O)N3)ccc1O (racemic) [O, rac-(Z)-1,3-Dihydro-4-[3-hydroxy-3-(4-hydroxy-3-methoxyphenyl)-1-propynyl]-3-[(3-methoxy-1H-pyrrol-2-yl)methylene]-2H-indol-2-one]
  inhibition at 1 µM: > 50%
